The record followed here is patent publication CN104710358A, “喹啉-4-甲酰胺衍生物及其医药用途” (Chengdu Military General Hospital of PLA, priority 2015, dated 2015).

Structures are written as SMILES.

The assay has as its system PTSD rat conditioned fear response [束缚应激致PTSD大鼠条件恐惧反应]. Briefly: Conditioned fear response in restraint-stress-induced PTSD rats (freezing after foot shock). The class given is in vivo. As to conditions: dose not given, Fig. 1.

On to `Cc1ccc(Cl)cc1N1CCN(CCCNC(=O)c2ccnc3ccccc23)CC1` [化合物1, N-{3-[4-(5-氯-2-甲基苯基)哌嗪基]丙基}-喹啉-4-甲酰胺, 盐酸乙醚成盐], for which, under “PTSD group, before versus after drug administration, 5 min test in shock box (CS+) without current”, the “percentage of freezing time” value is given as “显著降低”. Besides, the “inhibition of PTSD conditioned fear response” value (PTSD rats) is reported as “显著抑制PTSD条件性恐惧反应”. Also, the “anxiety level of PTSD rats” value (PTSD rats, inferred from the conditioned fear test) was “降低PTSD大鼠的焦虑水平”.
